Experiment [1] concerns the target T1, KDM3B (JMJD1B) (Homo sapiens, UniProt Q7LBC6).
T1 construct: 842-1761; host or cells: Bac (baculovirus system)
T1 sequence (Q7LBC6 842-1761): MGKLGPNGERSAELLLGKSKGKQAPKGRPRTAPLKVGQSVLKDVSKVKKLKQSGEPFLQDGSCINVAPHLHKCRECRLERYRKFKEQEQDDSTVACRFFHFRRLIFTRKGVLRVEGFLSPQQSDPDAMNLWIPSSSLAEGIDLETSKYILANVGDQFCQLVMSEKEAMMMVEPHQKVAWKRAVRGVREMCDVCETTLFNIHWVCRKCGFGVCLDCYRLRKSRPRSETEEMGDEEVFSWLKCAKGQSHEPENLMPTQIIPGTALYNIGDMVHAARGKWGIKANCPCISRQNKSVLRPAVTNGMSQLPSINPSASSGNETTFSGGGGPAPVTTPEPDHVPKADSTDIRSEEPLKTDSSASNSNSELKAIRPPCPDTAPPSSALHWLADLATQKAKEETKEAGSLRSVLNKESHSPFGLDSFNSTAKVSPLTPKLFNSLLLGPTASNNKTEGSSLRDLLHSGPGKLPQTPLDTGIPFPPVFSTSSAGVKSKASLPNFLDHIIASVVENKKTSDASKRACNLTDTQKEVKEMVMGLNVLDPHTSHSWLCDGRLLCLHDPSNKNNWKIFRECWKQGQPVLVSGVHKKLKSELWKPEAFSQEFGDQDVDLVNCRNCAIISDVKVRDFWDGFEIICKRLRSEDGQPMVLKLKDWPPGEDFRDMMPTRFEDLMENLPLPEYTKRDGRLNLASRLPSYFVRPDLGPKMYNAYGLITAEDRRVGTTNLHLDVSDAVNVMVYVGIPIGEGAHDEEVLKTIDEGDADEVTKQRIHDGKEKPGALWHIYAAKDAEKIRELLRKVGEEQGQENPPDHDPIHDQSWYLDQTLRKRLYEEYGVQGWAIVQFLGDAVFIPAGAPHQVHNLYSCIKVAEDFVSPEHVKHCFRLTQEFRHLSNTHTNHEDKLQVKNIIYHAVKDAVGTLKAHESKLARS
In words: Histone lysine demethylase AlphaLISA assay, KDM3B. In kind it is biochemical. Particulars: read-out: KDM3B HDME Inhibition IC50. The method in brief:
(§1)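 Biotinylated methylated H3 peptides (K9, K4, K27 or K36 marks) served as substrate, with 25 μM L-Asc and 10 μM α-KG. Enzymes were preincubated 10 min, then exposed to compounds (3% DMSO solutions) 10 min; product detected by AlphaLISA acceptor and streptavidin donor beads at room temperature in dark.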

For experiment [2], the target named is T2, KDM5B (PLU-1) (Homo sapiens, UniProt Q9UGL1).
T2 sequence (Q9UGL1 1-809): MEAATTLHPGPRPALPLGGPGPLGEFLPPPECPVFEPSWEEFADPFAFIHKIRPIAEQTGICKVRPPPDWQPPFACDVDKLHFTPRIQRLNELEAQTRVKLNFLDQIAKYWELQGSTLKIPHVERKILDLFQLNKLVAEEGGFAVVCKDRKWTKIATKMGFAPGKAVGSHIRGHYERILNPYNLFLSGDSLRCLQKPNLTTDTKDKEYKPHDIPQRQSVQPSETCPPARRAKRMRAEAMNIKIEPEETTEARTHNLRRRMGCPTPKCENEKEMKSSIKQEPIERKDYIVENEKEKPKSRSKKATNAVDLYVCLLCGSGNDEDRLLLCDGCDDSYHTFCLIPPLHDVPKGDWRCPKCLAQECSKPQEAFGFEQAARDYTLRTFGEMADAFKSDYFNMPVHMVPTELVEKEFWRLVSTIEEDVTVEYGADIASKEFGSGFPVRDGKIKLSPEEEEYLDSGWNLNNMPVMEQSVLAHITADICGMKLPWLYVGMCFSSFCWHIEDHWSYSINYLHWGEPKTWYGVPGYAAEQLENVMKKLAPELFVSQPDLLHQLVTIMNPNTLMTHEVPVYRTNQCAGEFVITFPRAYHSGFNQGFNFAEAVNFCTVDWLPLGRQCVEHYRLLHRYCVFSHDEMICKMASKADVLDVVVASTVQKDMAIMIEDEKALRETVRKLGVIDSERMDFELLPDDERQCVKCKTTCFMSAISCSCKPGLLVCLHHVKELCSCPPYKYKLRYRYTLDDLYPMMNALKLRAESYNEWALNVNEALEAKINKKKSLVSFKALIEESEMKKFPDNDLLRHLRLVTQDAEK
In words: Histone lysine demethylase AlphaLISA assay, KDM5B. In kind it is biochemical. Particulars: read-out: KDM5B HDME Inhibition IC50. The method in brief:
as §1

For experiment [3], the system named is H3K4me3 mark. In words: Histone lysine demethylase immunofluorescence assay, non-transfected U2OS cells. As to conditions: Homo sapiens, staining of the H3K4me3 mark, 20 hours incubation with compound. It counts as cell-based. The method in brief: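 Non-transfected U2OS cells incubated with compounds 20 h in DMEM/5% FBS. Fixed cells immunostained for H3K4me3 with Hoechst counterstain and imaged by high-throughput microscopy. IC50 based on average cellular H3K4me3 staining.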

Experiment [4] deals with MCF7 cells. Put plainly: Cell proliferation assay MCF7. In kind it is cell-based. Particulars: MCF7 human breast cancer cells; 120 hours; ATPlite 1 Step. An outline of the steps: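 Cells grown 24 h in DMEM GlutaMAX/10% FBS, then exposed to compounds in duplicate (≤0.5% DMSO) for 120 h. Viability read as ATP luminescence (ATPlite 1 Step). Seeding set to reach ~90% confluence at harvest.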

Consider 18 molecules from patent publication US9650339B2, “Inhibitors of histone demethylases” (Gilead Sciences, Inc., priority 2013, dated 2017).

As to `CN(C)C(=O)CNCc1cc(/C=N/CCC2CCCCC2)ccn1` [Compound 36, 2-[({4-[[(2-cyclohexylethyl)imino]-methyl]pyridin-2-yl}methyl)amino]-N,N-dimethylacetamide], the half-inhibitory concentration (IC50) in experiment [1] was more than 2.5 µM; in experiment [2], less than 0.25 µM; in experiment [3] it was less than 0.25 µM. Further, the 50% effective concentration (EC50) in experiment [4] was in the range of 0.25 to 2.5 µM.
For the molecule `CCN(CC)CCCCNCc1cc(/C=N\CCC2CCCCC2)ccn1` [Compound 67, (2-cyclohexylethyl)-({[2-({[4-(diethylamino)-butyl]amino}methyl)pyridin-4-yl]methylidene})-amine], the IC50 in experiment [1] is more than 2.5 µM; in experiment [2], less than 0.25 µM; in experiment [3], less than 0.25 µM. The molecule further came in with an EC50 in experiment [4] of less than 0.25 µM.
As for `COc1ccccc1CN1CCC(NC(=O)CNCc2cc(CN)ccn2)CC1` [Compound 9, 2-({[4-(aminomethyl)pyridin-2-yl]methyl}amino)-N-{1-[(2-methoxyphenyl)methyl]-piperidin-4-yl}acetamide], the IC50 in experiment [1] was more than 2.5 µM; in experiment [2], 0.25 to 2.5 µM; in experiment [3] it was 0.25 to 2.5 µM. The same molecule returned a 50% effective concentration (EC50) in experiment [4] of more than 2.5 µM.
In the case of `CCN(CC)CCCCN(Cc1cc(CNC(=O)C(F)(F)F)ccn1)C(=O)C(F)(F)F` [Compound 6, N-[4-(diethylamino)butyl]-- 2,2,2-trifluoro-N-({4-[(trifluoroacetamido)-methyl]pyridin-2-yl}methyl)acetamide], the 50% inhibitory concentration (IC50) in experiment [1] is more than 2.5 µM; in experiment [2], more than 2.5 µM; in experiment [3], less than 0.25 µM. The molecule also returned an EC50 in experiment [4] of less than 0.25 µM.
Consider `CC(C#N)NCc1ccnc(CNCCCN(C)C)c1` (stereo not drawn) [Compound 22, 2-({[2-({[3-(dimethylamino)propyl]-amino}methyl)pyridin-4-yl]methyl}amino)-propanenitrile], for which the IC50 is more than 2.5 µM in experiment [1], 0.25 to 2.5 µM in experiment [2] and less than 0.25 µM in experiment [3]. The molecule also returned a concentration giving a half-maximal response (EC50) in experiment [4] of less than 0.25 µM.
For the molecule `CN(C)C/C=C\CNCc1cc(C=O)ccn1` [Compound 99, 2-({[(2Z)-4-(dimethylamino)-but-2-en-1-yl]amino}methyl)-pyridine-4-carbaldehyde], the IC50 in experiment [1] was more than 2.5 µM; in experiment [2], less than 0.25 µM; in experiment [3], 0.25 to 2.5 µM. For the same molecule, the EC50 in experiment [4] was more than 2.5 µM.
As for `CN(C)CC1CCC(CNCc2cc(/C=N/C3CC3)ccn2)CC1` (stereo not drawn) [Compound 46, N-[(2-{[({4-[(dimethylamino)-methyl]cyclohexyl}-methyl)amino]-methyl}pyridin-4-yl)methylidene]-cyclopropanamine], the IC50 in experiment [1] was more than 2.5 µM; in experiment [2] it was 0.25 to 2.5 µM; in experiment [3], less than 0.25 µM. Moreover, the EC50 in experiment [4] was less than 0.25 µM.
`CCN(CCN(C)C)C(=O)CNCc1cc(CNC(=O)C(F)(F)F)ccn1` [Compound 25, N-[(2-{[({[2-(dimethylamino)ethyl]-(ethyl)carbamoyl}-methyl)amino]methyl}-pyrtdin-4-yl)methyl]-2,2,2-trifluoroacetamide]: the IC50 in experiment [1] is more than 2.5 µM; in experiment [2] it was 0.25 to 2.5 µM; in experiment [3] it was less than 0.25 µM. In experiment [4], the EC50 is less than 0.25 µM.
Regarding `CN(C)C/C=C/CNCc1cc(/C=N/C2CC2)ccn1` [Compound 43, N-{[2-({[(2E)-4-(dimethylamino)but-2-en-1-yl]amino}-methyl)pyridin-4-yl]methylidene}-cyclopropanamine], the figures for the half-maximal inhibitory concentration (IC50) in experiment [1], in experiment [2] and in experiment [3] were more than 2.5 µM, less than 0.25 µM and less than 0.25 µM, respectively. Further, the EC50 in experiment [4] was less than 0.25 µM.
In the case of `C(=N\C1CC1)/c1ccnc(CNCCCCN2CCC2)c1` [Compound 44, N-{[2-({[4-(azetidin-1-yl)butyl]amino}methyl)-pyridin-4-yl]methylidene}-cyclopropanamine], the IC50 in experiment [1] is more than 2.5 µM; in experiment [2], less than 0.25 µM; in experiment [3], less than 0.25 µM. In experiment [4], this molecule showed an EC50 of less than 0.25 µM.
With `CCN(CC)CCCCNCc1cc(/C=N/CC(F)(F)C(F)(F)F)ccn1` [Compound 62, {[2-({[4-(diethylamino)-butyl]amino}methyl)pyridin-4-yl]methylidene} (2,2,3,3,3-pentafluoropropyl)-amine], the IC50 in experiment [1] was more than 2.5 µM; in experiment [2] it was less than 0.25 µM; in experiment [3] it was less than 0.25 µM. The molecule also returned an EC50 in experiment [4] of less than 0.25 µM.
For `CCN(CC)CCCCNCc1cc(C=O)ccn1` [Compound 107, 2-({[4-(diethylamino)-butyl]amino}-methyl)pyridine-4-carbaldehyde], the 50% inhibitory concentration (IC50) is more than 2.5 µM in experiment [1], less than 0.25 µM in experiment [2] and less than 0.25 µM in experiment [3]. The EC50 in experiment [4] is less than 0.25 µM.
Turning to `CCN(CCN(C)C)C(=O)CNCc1cc(CN)ccn1` [Compound 4, 2-({[4-(aminomethyl)pyridin-2-yl]methyl}amino)-N-[2-(dimethylamino)ethyl]-N-ethylacetamide], the IC50 in experiment [1] is more than 2.5 µM; in experiment [2] it was less than 0.25 µM; in experiment [3], less than 0.25 µM. The molecule also had an EC50 in experiment [4] of less than 0.25 µM.
In the case of `CN1CCCC1CCNCc1cc(/C=N/C2CC2)ccn1` (stereo not drawn) [Compound 40, N-{[2-({[2-(l-methylpyrrolidin-2-yl)ethyl]amino}methyl)-pyridin-4-yl]methylidene}-cyclopropanamine], the IC50 is more than 2.5 µM in experiment [1], less than 0.25 µM in experiment [2] and less than 0.25 µM in experiment [3]. In experiment [4], this molecule registered an EC50 of 0.25 to 2.5 µM.
Consider `O=Cc1ccnc(CNCCCN2CCCC2)c1` [Compound 111, 2-({[3-(pyrrolidin-1-yl)propyl]amino}-methyl)pyridine-4-carbaldehyde], for which the IC50 in experiment [1] was more than 2.5 µM; in experiment [2], less than 0.25 µM; in experiment [3], less than 0.25 µM. Also, in experiment [4], the EC50 was less than 0.25 µM.
For `CCN(CC)CCCCN(Cc1cc(C=O)ccn1)C(=O)C(F)(F)F` [Compound 115, N-[4-(diethylamino)butyl]-2,2,2-trifluoro-N-[(4-formylpyridin-2-yl)methyl]acetamide], the results for the IC50 in experiment [1], in experiment [2] and in experiment [3] were more than 2.5 µM, more than 2.5 µM and less than 0.25 µM, respectively. In experiment [4], this molecule had an EC50 of less than 0.25 µM.
Regarding `NCc1ccnc(CNCCCCN2CCC2)c1` [Compound 7, [2-({[4-(azetidin-1-yl)butyl]amino}methyl)-pyridin-4-yl]-methanamine], the IC50 in experiment [1] is more than 2.5 µM; in experiment [2] it was 0.25 to 2.5 µM; in experiment [3] it was less than 0.25 µM. In experiment [4], this molecule came in with an EC50 of 0.25 to 2.5 µM.
In the case of `CCN(CC)CCCCNCc1cc(/C=N/CCO)ccn1` [Compound 61, 2-[{[2-({[4-(diethylamino)-butyl]amino}-methyl)pyridin-4-yl]methylidene}-amino]ethan-1-ol], the figures for the IC50 in experiment [1], in experiment [2] and in experiment [3] were more than 2.5 µM, less than 0.25 µM and less than 0.25 µM, respectively. Moreover, in experiment [4], the EC50 is less than 0.25 µM.
